Results taken from patent US6391871B1 (priority 1996, dated 2002).
Where two headings read alike, the source gives them in different places.

What was measured:
cerebrocortical neurons = conditions: Olney et al 1989, Corso et al 1994; cited from earlier work
NMDA receptors = assay type: cell-based, chick
Procedure: Potency rating=minimum concentration required to provide total protection against neurotoxic effects of NMDA (40 μM) in chick embryo retinal tissue tests
These experiments were performed using segments of chick embryo retina. This is a widely used model for studying the production and prevention of excitotoxic phenomena, since it is a simple and inexpensive preparation, and since chick tissue provides a better model of adult mammalian neurons than embryonic or juvenile mammalian tissue. All of the glutamate receptors that mediate excitotoxic phenomena are present in chick retinas, and are sensitive to excitotoxic stimulation. By contrast, in embryonic or juvenile mammalian tissue, various glutamate receptors are not fully matured and are not responsive in the same ways that occur in adult mammalian tissue.
In these tests, NMDA is introduced into the incubation medium in a concentration ([…]) sufficient to produce a fully developed excitotoxic lesion within 30 min, displaying acute degeneration and necrosis of the majority of neurons in the inner layers of the retina. The control retinas are incubated with NMDA alone, and experimental retinas are incubated with NMDA plus a test compound that is being evaluated for NMDA antagonist properties. […] All agents that prevent NMDA from hyperactivating NMDA receptors and thereby inducing an excitotoxic neurodegenerative reaction in the chick embryo retina are considered appropriate candidate drugs for preventing NMDA receptor hyperactivation and NMDA receptor burnout in the presymptomatic stages of Alzheimer's disease.
The concentration of the test compound required to prevent NMDA from inducing neuronal degeneration in the chick retina tissue is considered a measure of its expected potency for preventing NMDA receptor hyperactivation and NMDA receptor burnout in the presymptomatic stages of Alzheimer's disease.

[1] = human anesthesia; cited from earlier work
[2] = test system: neurons in neocortical and limbic brain regions; assay: Histopathology of rat brain after PCP/pilocarpine treatment; assay type: in vivo; conditions: PCP 50 mg/kg i.p. combined with pilocarpine 10 mg/kg i.p.
Procedure: Adult female rats were injected subcutaneously with an NMDA antagonist drug, phencyclidine (PCP), at 50 milligrams of drug per kilogram of body weight (mg/kg sc), accompanied by a small dose of a muscarinic agonist, pilocarpine (10 mg/kg sc). At various times (4, 16, 24, 48, 72 and 96 hours) after treatment, the rats were anesthetized and perfused with fixative to allow their brains to be prepared for histological evaluation.
Degenerating neurons in various brain regions were also examined by electron microscopy, to obtain evidence for loss of synaptic complexes, and a computer-assisted cell plotting system was used to plot the location and count the frequency with which degenerating neurons were found in each brain region.
Massive loss of neurons throughout many neocortical and limbic brain regions is a hallmark characteristic of Alzheimer's disease. To establish that the NR/hypo mechanism results not only in cell injury but in cell death, the Applicants systematically examined the brains of rats 4 days following PCP/pilocarpine treatment. Sections prepared at 1 millimeter intervals from one side of the brain were stained, using hematoxylin and eosin; sections prepared at 1 millimeter intervals from the other side of the brain were stained using a silver impregnation stain. […]

neurons in rat brain = assay: PCP alone (minipump infusion or single high dose), brain damage in rats; assay type: in vivo
Source text: Initially, the Applicants found it difficult to perform a detailed analysis of the full pattern and type of damage that can be induced in the adult rat brain by treatment with an NMDA antagonist because of technical problems that had to be overcome. Therefore, the Applicants tried several approaches. For example, it had been claimed (Ellison 1994) that when PCP is infused continuously in adult rats for five days, by a subcutaneously implanted minipump, it causes injury to nerve cells in several brain regions.
However, they found (Corso et al 1994) that even when a near lethal dose (50-80 mg/kg sc) was administered, a fully developed widespread pattern of damage could only be induced in a very small percentage of treated animals.

[3] = test system: pyramidal neurons in layers III and IV of the posterior cingulate and retrosplenial (PC/RS) cortices; assay: In vivo assay of toxic side effects of NMDA antagonists (vacuole formation in PC/RS cortex); conditions: adult female rats, ip, sacrificed four hours after treatment
vacuolated PC/RS neurons [4] = assay type: in vivo, rat; conditions: MK-801 ip
Procedure: To try to avoid that problem, a subsequent set of tests was carried out in which NBQX was microinjected directly into the PC/RS cortex, at one of two doses, either 0.025 or 0.25 nmols.

vacuolated PC/RS neurons [5] = assay type: in vivo, rat; conditions: NBQX 15 mg/kg ip every 30 minutes, 4 injections, with MK-801 0.5 mg/kg; 4 h; ± SEM
Source text: The rats were sacrificed four hours after the treatment began, and brain tissue from the PC/RS region was histologically evaluated, by previously described methods (Olney et al 1991) using double-blinded techniques. The number of vacuolated PC/RS neurons were counted on each side of the brain at a rostrocaudal level immediately posterior to where the corpus callosum ceases decussating across the midline (approximately 5.6 mm caudal to Bregma; see Paxinos & Watson, The Rat Brain in Stereotaxic Coordinates, 2nd ed., 1986).

Row | Compound | pathological changes in cerebral cortex / corticolimbic regions of adult rats (cerebrocortical neurons) | POTENCY RATING = minimum concentration required to provide total protection against neurotoxic effects of NMDA (NMDA receptors) [µM] | duration of action [1] | NR/hypo-induced brain damage, PCP combined with pilocarpine [2] | rats with a full pattern of damage out of 40 rats treated (neurons in rat brain; PCP 50 mg/kg i.p., single dose) | neuronal damage after continuous infusion by subcutaneous minipump (neurons in rat brain; adult rats, five days, same dose as Ellison 1994) | near lethal dose (neurons in rat brain; rats) | neurotoxic (vacuole) reaction in PC/RS cortex, drug by itself [3] | reduction of vacuoles, protected (ipsilateral) side, lower dosage (vacuolated PC/RS neurons [4]; NBQX 0.025 nmols microinjected into PC/RS cortex) | reduction of vacuoles, protected (ipsilateral) side, higher dosage (vacuolated PC/RS neurons [4]; NBQX 0.25 nmols microinjected into PC/RS cortex) | vacuolated neurons in PC/RS cortex, MK-801 plus NBQX (vacuolated PC/RS neurons [5]) | POTENCY RATING = minimum concentration required to provide total protection against neurotoxic effects of NMDA (NMDA receptors; NMDA 40 μM, chick embryo retinal tissue) [µM]
1 | CNC1(c2ccccc2Cl)CCCCC1=O (centres unmarked) [Ketamine] | cause pathological changes in the cerebral cortex of adult rats | 10 | about 15 minutes | – | – | – | – | – | – | – | – | –
2 | c1ccc(C2(N3CCCCC3)CCCCC2)cc1 [Phencyclidine] | produce pathological changes in various corticolimbic regions of the adult rat brain | 1 | – | reliably and consistently produced severe levels of NR/hypo-induced damage | 1 | produced no neuronal damage at all | 50-80 mg/kg sc | – | – | – | – | –
3 | NS(=O)(=O)c1cccc2c1c([N+](=O)[O-])cc1nc(O)c(O)nc12 [NBQX] | – | – | – | – | – | – | – | did not cause vacuoles | about 20% | about 80% | 52±22.4 vacuolated neurons per microscopic section | 100
